Laboratory results published in patent US9242984B2, “Pyrazolyl derivatives as Syk inhibitors” (Merck Sharp & Dohme Corp., priority 2012, dated 2016).

target: T1, recombinant human Syk (GST-hSyk fusion protein) (Homo sapiens, UniProt P43405); assay: Homogeneous Time-Resolved Fluorescence (HTRF) assay for the recombinant human Syk enzyme; format: biochemical; settings: IC50 class; 10-dose titration, 25 μM ATP; read-out: rhSYK Activity
T1 construct: purchased Carna Biosciences 08-176
Outline: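 GST-hSyk (5 pM) preincubated 10 min with compound (0.1% DMSO) in 15 mM Tris-HCl pH 7.5, 2 mM DTT; reaction started with 250 nM biotinylated peptide, 5 mM Mg, 25 μM ATP, 45 min, room temperature. EDTA quench, Eu-anti-phosphotyrosine/SA-APC HTRF read after 30 min; IC50 from 10-dose titration (10 μM–0.508 nM), four-parameter fit.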

IC50 [nM] | Structure (SMILES)
≤ 100 | Cc1cc(Nc2nccc(C(F)F)n2)cc(-c2cnn(CC(O)C(C)(C)C)c2)c1 (stereo not shown) [Example 5.30, 1-[4-(3-{[4-(difluoromethyl)pyrimidin-2-yl]amino}-5-methylphenyl)-1H-pyrazol-1-yl]-3,3-dimethylbutan-2-ol]
100 to 1000 | Cc1cc(Nc2nccc(C(F)(F)F)n2)cc(-c2cnn(CC(=O)N3CCOCC3(C)C)c2)c1 [Example 3.13, N-(3-{1-[2-(3,3-dimethylmorpholin-4-yl)-2-oxoethyl]-1H-pyrazol-4-yl}-5-methylphenyl)-4-(trifluoromethyl)pyrimidin-2-amine]
≤ 100 | CC(=O)Cn1cc(-c2cc(C)cc(Nc3nccc(C(F)(F)F)n3)c2)cn1 [Example 3.22, 1-[4-(3-methyl-5-{[4-(trifluoromethyl)pyrimidin-2-yl]amino}phenyl)-1H-pyrazol-1-yl]propan-2-one]
≤ 100 | Cc1cc(Nc2nccc(C(F)F)n2)cc(-c2cnn(CC(O)C(F)(F)F)c2)c1 (stereo not shown) [Example 5.24, 3-[4-(3-{[4-(difluoromethyl)pyrimidin-2-yl]amino}-5-methylphenyl)-1H-pyrazol-1-yl]-1,1,1-trifluoropropan-2-ol]
≤ 100 | Cc1cc(Nc2nccc(C(F)(F)F)n2)cc(-c2cnn(Cc3nnc(C)o3)c2)c1 [Example 3.24, N-(3-methyl-5-{1-[(5-methyl-1,3,4-oxadiazol-2-yl)methyl]-1H-pyrazol-4-yl}phenyl)-4-(trifluoromethyl)pyrimidin-2-amine]
≤ 100 | Cc1cc(Nc2nccc(C(C)O)n2)cc(-c2cnn(C[C@](C)(O)CO)c2)c1 (stereo partly drawn) [Example 2.87, (2S)-3-[4-(3-{[4-(1-hydroxyethyl)pyrimidin-2-yl]amino}-5-methylphenyl)-1H-pyrazol-1-yl]-2-methylpropane-1,2-diol]
≤ 100 | COc1nc(Nc2cc(C)cc(-c3cnn(CC4CNC(=O)O4)c3)c2)ncc1Cl (stereo not shown) [Example 2.23, 5-[(4-{3-[(5-chloro-4-methoxypyrimidin-2-yl)amino]-5-methylphenyl}-1H-pyrazol-1-yl)methyl]-1,3-oxazolidin-2-one]
≤ 100 | Cc1cc(Nc2cc(C(F)F)ccn2)nc(-c2cnn(CC3CNC(=O)O3)c2)c1 (stereo not shown) [Example 3.81, 5-{[4-(6-{[4-(difluoromethyl)pyridin-2-yl]amino}-4-methylpyridin-2-yl)-1H-pyrazol-1-yl]methyl}-1,3-oxazolidin-2-one]
≤ 100 | Cc1cc(Nc2nccc(C(F)(F)F)n2)cc(-c2cnn(CC3NC(=O)OC3C)c2)c1 (stereo not shown) [Example 3.128, 5-methyl-4-{[4-(3-methyl-5-{[4-(trifluoromethyl)pyrimidin-2-yl]amino}phenyl)-1H-pyrazol-1-yl]methyl}-1,3-oxazolidin-2-one]
≤ 100 | Cc1cc(Nc2nccc(C(F)F)n2)cc(-c2cnn(CC3OC(=O)NC34CC4)c2)c1 (stereo not shown) [Example 3.94, 7-{[4-(3-{[4-(difluoromethyl)pyrimidin-2-yl]amino}-5-methylphenyl)-1H-pyrazol-1-yl]methyl}-6-oxa-4-azaspiro[2.4]heptan-5-one]
≤ 100 | Cc1cc(Nc2nccc(C(F)F)n2)cc(-c2cnn(C[C@H]3CNCCO3)c2)c1 [Example 2.84, 4-(difluoromethyl)-N-(3-methyl-5-{1-[(2R)-morpholin-2-ylmethyl]-1H-pyrazol-4-yl}phenyl)pyrimidin-2-amine]
≤ 100 | Cc1cc(Nc2nccc(C(F)(F)F)n2)cc(-c2cnn(CC(C)(O)CC#N)c2)c1 (stereo not shown) [Example 20.2, 3-hydroxy-3-methyl-4-[4-(3-methyl-5-{[4-(trifluoromethyl)pyrimidin-2-yl]amino}phenyl)-1H-pyrazol-1-yl]butanenitrile]
≤ 100 | Cc1cc(Nc2nccc(C(F)F)n2)cc(-c2cnn(CC(C)(C)NC(=O)NC(C)(C)C)c2)c1 [Example 27.7, 1-tert-butyl-3-{2-[4-(3-{[4-(difluoromethyl)pyrimidin-2-yl]amino}-5-methylphenyl)-1H-pyrazol-1-yl]-1,1-dimethylethyl}urea]
